This is an account of results in US6911474B2, “Methods, compounds, and compositions for reducing body fat and modulating fatty acid metabolism” (The Regents of the University of California, priority 2001, dated 2005).

Ends that are not written are not given here.

A short description of data set [1]: Food intake in capsaicin-treated rats (sensory fibers destroyed). In kind it is in vivo, rat. The conditions noted are these: OEA 10 mg per kg, i.p., FIG. 6a,c. An excerpt: Chemicals. FAEs and [^2H4] FAEs were synthesized in the laboratory (Giuffrida et al., “Lipid Second Messengers” (ed. Laychock, S. G. & Rubin, R. P.) 113-133 (CRC Press LLC, Boca Raton, Fla., 1998)); 1,2-dioleyl-sn-glycero-phosphoethanolamine-N-oleyl was purchased from Avanti Polar Lipids (Alabaster, Ala.); SR141716A was provided by RBI (Natick, Mass.) as part of the Chemical Synthesis Program of the NIMH (N01MH30003); SR144528 was a generous gift of Sanofi Recherche; all other drugs were from Tocris (Ballwin, Mo.) or Sigma (Saint Louis, Mo.). FAE were dissolved in dimethylsulphoxide (DMSO) and administered in 70% DMSO in sterile saline (acute treatments) or 5% Tween 80/5% propylenglycol in sterile saline (subchronic treatments) (1 ml per kg, i.p.). Capsaicin was administered in 10% Tween 80/10% ethanol/80% saline; SR141716A, SR144528, CCK-8 and CP-93129 in 5% Tween 80/5% propylenglycol/90% saline (1 ml per kg, i.p.).
These findings support the hypothesis that OEA causes hypophagia by acting at a peripheral site, and that sensory fibers are required for this effect.

Data set [2] can be described thus: Conditioned taste aversion. In kind it is in vivo, rat. The following applies: OEA 20 mg per kg, i.p.; lithium chloride 0.4 M, 7.5 ml per kg; FIG. 4c. The protocol: Conditioned taste aversion. Rats were water-deprived for 24 h and then accustomed to drink from a graded bottle during a 30-min test period for four days. On day five, water was substituted with a 0.1% saccharin solution and, 30 min later, the animals received injections of vehicle, OEA (20 mg per kg) or lithium chloride (0.4 M, 7.5 ml per kg). During the following two days, water consumption was recorded over 30-min test periods. The animals were then presented with water or saccharin, and drinking measured.

A short description of data set [3]: Acute food intake in 24-h food-deprived rats after i.p. administration. In kind it is in vivo, rat. The conditions noted are these: 24-h food-deprived rats, 15 min before food presentation, FIG. 4a,b. The protocol:
Feeding experiments. Acute experiments. Food intake was measured in 24-h food-deprived rats (Navarro et al., J. Neurochem., 67:1982-1991 (1996)), administering drugs 15 min before food presentation. Subchronic experiments. Ad libitum fed rats received vehicle injections for three days. On day four, the animals were divided in two equal groups and gave them daily injections of vehicle or OEA (5 mg per kg at 1900 h) for 7 consecutive days, while measuring body weight, food intake and water intake.
The effects of systemically administered OEA on food intake in rats can be assessed using a 24 h fast. […] To define the selectivity of this response, various OEA analogs were evaluated for their ability to produce hypophagia.

In the next data set the test system is Soleus muscle. Put plainly: [14C]oleate oxidation to CO2 in soleus muscle. The following applies: soleus muscle, structure-activity relationship; FIG. 8. In kind it is cell-based, rat.

Turning to `O=c1ccc2[nH]cc(C3=CCNCC3)c2[nH]1` [CP-93129], the “food intake response of capsaicin-treated rats” value in data set [1] is reported as “responded normally”.

Take `[Cl-].[Li+]` [lithium chloride]: the conditioned taste aversion entry in data set [2] was “readily provoked”.

Take `CCCCC/C=C\C/C=C\C/C=C\C/C=C\CCCC(=O)NCCO` [Anandamide, arachidonylethanolamide, reference compound]: the “suppression of food intake (hypophagia)” value in data set [3] is “no effect”. Further, in the data set with Soleus muscle, the “mimicking of the effect of OEA on skeletal muscle fatty acid oxidation” value (from here on “mimicking of the effect of OEA”) is given as “not”.

Take “cholecystokinin-8 (DYMGWMDF; ends and bridges not checked; UniProt P06307 96-103, looked up) [CCK-8, peripherally administered cholecystokinin-8]”: the “food intake response of capsaicin-treated rats” value in data set [1] is on record as “failed to respond”.

On to `CCCCCCCCCCCCCCCC(=O)NCCO` [Palmitylethanolamide, palmitylethanolamide], for which the “suppression of food intake (hypophagia)” value in data set [3] is reported as “active but significantly less potent than OEA”. Moreover, the “mimicking of the effect of OEA” value in the data set on Soleus muscle is recorded as “only partially”.

Regarding `CCCCCCCC/C=C\CCCCCCCC(=O)O` [oleic acid, reference compound], in data set [3], the “suppression of food intake (hypophagia)” value is on record as “no effect”. In addition, the “mimicking of the effect of OEA” value with Soleus muscle is recorded as “not”.
